Measured values: US20110206623A1, “NOVEL DIPOLAR IONIC COMPOUNDS COMPRISING FORMULATIONS AND THE USE THEREOF” (EVONIK GOLDSCHMIDT GMBH, priority 2007, published 2011)

Tests used:
[1] = test system: skin roughness, inner side of a forearm of probands; assay: Skin roughness by tape stripping and Bradford test; assay type: in vivo, human; details: 2% formulation twice daily
Excerpt: The skin roughness can be quantified in a simple way by means of tape stripping. The rougher the skin surface, e.g. because the skin lipid barrier is damaged, the weaker the binding of the skin cells. In some cases, with very rough skin, this can be seen with the naked eye. The outermost corneocytes are removed by tape stripping. In this connection, the more corneocytes stuck to the tape, the rougher the skin. The corneocytes are subsequently determined quantitatively using a commercially available Bradford test. This is based on the following principle: the triphenylmethane dye Coomassie Brilliant Blue G-250 (CBBG) forms complexes in acid solution both with the cationic and the nonpolar hydrophobic side chains of the proteins. […] Since the extinction coefficient of the dye/protein complex is in addition very much higher than that of the free dye, the increase in the absorption at 595 nm through the formation of the complex can be measured photometrically with high sensitivity against the free dye reagent and is a measure of the protein concentration of the solution.
The study was carried out with 12 probands who received two test formulations, one with 2% compound 2.1 and one without. […] Tape strips were taken and analyzed before the beginning of the application and also after 2 weeks and after 4 weeks. […]

[2] = Water retention capacity on an IMS film; details: 5.0% in test formulation 3.7; 4 hours at 21-22° C. and 72% R.H.; in comparison with the vehicle
Excerpt: The determination of the water retention capacity of active substances using the IMS film represents a simple screening test by which the moisturizing properties of active substances can be very satisfactorily investigated. The measurement is based on the following principle: The IMS film is a membrane which is covered with peptides, lipids and polymers and represents a greatly simplified skin model. The active substance interacts out of the formulation with the film. Combining with water takes place and thus the evaporation of the water is prevented or made more difficult.
Implementation: • 1. The weight of the IMS membrane is determined (W1). • 2. The test formulation is applied, the film is again weighed (W2) and the film is subsequently incubated at 21-22° C. and 72% R.H. for 4 hours. • 3. After the 4 hours have passed, the film is again weighed (W3). • 4. The water retention capacity of the formulation (WR) is calculated as follows: […]

[3] = test system: skin moisture (stratum corneum), forearms of probands; assay: In vivo moisturizer properties, corneometer, 2 hours after application; parameters: species or system human
Method: The skin moisture is determined in normal fashion using a corneometer.
With the corneometer principle, the skin moisture of the “outer layer” of the epidermis (stratum corneum) is determined by means of a capacity measurement. This principle is based on the fact that the dielectric constants of water and other substances differ. An appropriately shaped measuring capacitor reacts with different changes in capacity on the samples introduced into its sensing volume, which changes in capacity are recorded and evaluated fully automatically by the device. The active probe coated with special glass is pressed against the place on the skin to be measured and, after 1 second, the value measured by the corneometer, thus the degree of moisture on the skin surface, appears on the display
For the experiments described here, use is made of a corneometer CM 825 from Courage & Khazaka. The skin moisture was measured before and 2 hours after application of the test formulations. For this, 4 test panels were each time highlighted on the forearms of 14 probands, on which the different test formulations were applied. Before each measurement, the probands had to spend at least 15 min in a climate-controlled chamber (21-22° C., 55% R.H.).
The difference in the corneometer values before and after application of the test formulations was calculated. […]

[4] = test system: skin model (reconstructed human epidermis) damaged with SDS; assay: XTT test with an O/W cream with compound 2.1 after SDS damage; assay type: cell-based; details: O/W cream with compound 2.1 applied after 0.25% SDS for 40 min; 24 h incubation
Method: (§1) In order to be able to characterize the skin care properties of the compounds 2.1 to 2.8, various in vitro tests were carried out on skin models (reconstructed human epidermis, company: SkinEthic).
The XTT test is based on the ability of the cells to reduce the dye XTT, which can be detected photometrically. This reaction is catalyzed by mitochondrial succinate dehydrogenase and requires NAD(P)H, which can only be formed by metabolically active cells. To sum up, the XTT test describes the viability of the cells.
The XTT test was carried out with a commercially available test kit and took place according to the manufacturer's instructions (XTT Test, Roche Diagnostics, Mannheim, Germany).
The skin model was first damaged with 0.25% SDS for 40 min. Subsequently, the test formulations were applied. After incubating for a time of 24 h, the viability of the cells was determined using the XTT test.
Test formulation: see Example 3.2.

[5] = test system: skin model (reconstructed human epidermis) damaged with SDS; assay: LDH release after damaging the cells with SDS, O/W cream; assay type: cell-based
Method: as §1
The LDH concentration was determined with a commercially available test kit (LDH test kit, Roche Diagnostics, Mannheim, Germany).
Sodium dodecyl sulphate (SDS) is known for attacking the cell membrane and for resulting in increased LDH release. The experiment described below should investigate to what extent compound 2.1 can protect the cells after damaging with SDS.
The skin model was damaged with SDS for 40 min. Subsequently, the test formulation, an O/W cream with 1 or 4% of compound 2.1, was applied. The LDH release was measured 24 h and 48 h after application of the test formulation.

[6] = test system: skin moisture, inner side of a forearm of probands; assay: Long-term moisturizing effect, corneometer, two-week study; assay type: in vivo, human; details: 2% in test formulation 3.9, twice daily for 2 weeks; compared with vehicle; 12 probands
Method: In order to investigate the long-term effect of the moisturizing properties of compound 2.1, a study lasting two weeks was carried out with 12 probands. The probands received 2 formulations, one with 2% of compound 2.1 and one without active substance. They had to apply each of these formulations on the inner side of a forearm twice daily. The moisture content was measured before beginning to use and also after 2 weeks.
The moisture content was determined using a corneometer CM 825 (Courage & Khazaka). Before each measurement, the probands had to stay in a climate-controlled chamber (21-22° C., 55% R.H.) for at least 15 min. The difference in the corneometer units with respect to the starting value was calculated each time (ΔCU).

IL-1α = assay: Anti-inflammatory action of an O/W cream with compound 2.1 (IL-1α after SDS damage); assay type: cell-based, human; details: O/W cream with 1% and 4% of compound 2.1 applied after SDS damage
Method: as §1
IL-1α is a […] which plays a central role in inflammatory reactions in the body. Sodium lauryl sulphate (SDS) is a skin-irritating surfactant which can give rise to irritant contact dermatitis in man, is used as model irritant in proband studies and, inter alia, induces the release of IL-1α. The IL-1α concentration was determined with a commercially available test kit (human IL-1α immunoassay, R&D Systems GmbH, Wiesbaden, Germany).
It should be investigated whether the anti-inflammatory effect of the short-chain zwitterionic compounds also appears when used from a cosmetic formulation. For this, skin models were damaged with SDS. Subsequently, the test formulation with 1% and 4% of compound 2.1 was applied. The IL-1α concentration was determined 24 and 48 h after application.

C[N+](C)(CCCNC=O)CC(=O)[O-] [Compound 2.1]
Skin roughness (amount of protein on tape strips, based on the vehicle), two weeks ([1]; after using for two weeks, compared with the vehicle): clear reduction
Skin roughness (amount of protein on tape strips, based on the vehicle), further use ([1]; further use (after 4 weeks)): even more pronounced
Water retention capacity (WR) [2]: particularly strongly pronounced
Effectiveness on skin moisture with increasing concentration of use ([3]; 1.0% vs 4.0% in test formulation 3.8): clearly increased with increasing concentration of use
Skin moisture, increase in corneometer units (ΔCU) ([3]; 1.0/4.0% in test formulation 3.8, 14 probands): very clearly increased
Viability of the skin cells (XTT) after damaging with SDS [4]: more than redoubled
Effectiveness on LDH release with 4% compared with 1% ([5]; O/W cream with 4% vs 1% of compound 2.1 after SDS damage): no clear increase in the effectiveness
Reduction of the SDS-induced increase in LDH release (total LDH after 24 and 48 h) ([5]; O/W cream with compound 2.1 applied after 40 min SDS damage, compared with vehicle): clearly intensified
Moisture content (ΔCU) after 2 weeks [6]: further enhanced
SDS-induced increase in IL-1α (overall concentration after 24 and 48 h) (IL-1α): more strongly reduced in a concentration-dependent fashion
